# Patent US9884818B2, “Sulphamoylpyrrolamide derivatives and the use thereof as medicaments for the treatment of hepatitis B” (Janssen Sciences Ireland UC, priority 2013, dated 2018)
# How the values were obtained:
# [1] = Cytotoxicity in HepG2 cells, Resazurin viability assay; conditions: human
# HBV [2] = test: Anti-HBV activity, HepG2.117 inducibly HBV producing cell line (Tet-off), intracellular HBV DNA by realtime PCR; assay type: cell-based; conditions: Hepatitis B virus, HepG2.117, 72 h
# HBV [3] = test: Anti-HBV activity, HepG2.2.15 stable transfected cell line, HBV DNA from secreted virions by realtime PCR; assay type: cell-based
# [4] = HepG2 cells, HepG2 4 days CC50 (μM), incubated for 4 days, Resazurin assay
# [5] = HepG2.117 cells, 3 days of treatment, intracellular HBV DNA, read-out: HepG2 117 EC50
# [6] = Hepatitis B virus, HepG2.2.15, 144 h, HepG2.2.15 cells, 6 days of treatment, HBV DNA from secreted virions, read-out: HepG2 2.15 EC50
Structure (SMILES),"CC50 at 4 days [1, 4] [µM]",EC50 (HBV [2]; [5]) [µM],EC50 (HBV [3]; [6]) [µM],"EC50 (HBV [3]; HepG2.2.15 cells, 6 days of treatment, HBV DNA from secreted virions, read-out: HepG2 2.15 EC50) [µM]",CC50 at 4 days [1] [µM],EC50 (HBV [2]; read-out: HepG2 117 EC50 (μM)) [µM],"EC50 (HBV [3]; Hepatitis B virus, HepG2.2.15, 144 h, read-out: HepG2 2.15 EC50 (μM)) [µM]"
"C[C@@H](NS(=O)(=O)c1cn(C)c(C(=O)Nc2cc(Cl)c(F)c(C#N)c2)c1F)C(F)(F)F [Compound 313, N-(3-chloro-5-cyano-4-fluoro-phenyl)-3-fluoro-1-methyl-4-[[(1R)-2,2,2-trifluoro-1-methyl-ethyl]sulfamoyl]pyrrole-2-carboxamide]",> 25,0.05,0.02,,,,
"Cc1cc(NC(=O)c2cc(S(=O)(=O)N[C@H](C)C(F)(F)F)cn2C)ccc1F [Compound 9, N-(4-fluoro-3-methyl-phenyl)-1-methyl-4-[[(1R)-2,2,2-trifluoro-1-methyl-ethyl]sulfamoyl]pyrrole-2-carboxamide]",> 25,0.03,0.01,,,,
"CC(C)NS(=O)(=O)c1cn(C)c(C(=O)Nc2ccc(F)c(C#N)c2)c1Cl [Compound 269, 3-Chloro-N-(3-cyano-4-fluorophenyl)-1-methyl-4-[(1-methylethyl)sulfamoyl]-1H-pyrrole-2-carboxamide]",> 25,0.07,0.05,,,,
"Cn1cc(S(=O)(=O)N[C@H]2CCOC2)cc1C(=O)Nc1ccc(F)c(C(F)(F)F)c1 [Compound 42, N-[4-fluoro-3-(trifluoromethyl)phenyl]-1-methyl-4-[[(3S)-tetrahydrofuran-3-yl]sulfamoyl]pyrrole-2-carboxamide]",> 25,0.72,0.54,,,,
"CC[C@@H](C)NS(=O)(=O)c1cn(C)c(C(=O)Nc2ccc(F)c(C#N)c2)c1F [Compound 186, N-(3-Cyano-4-fluorophenyl)-3-fluoro-1-methyl-4-{[(1R)-1-methyl-propyl]sulfamoyl}-1H-pyrrole-2-carboxamide]",> 25,0.005,0.008,,,,
"Cn1cc(S(=O)(=O)NCC(F)F)cc1C(=O)Nc1ccc(F)c(Cl)c1 [Compound 128, N-(3-Chloro-4-fluorophenyl)-4-[(2,2-difluoroethyl)sulfamoyl]-1-meth-1H-pyrrole-2-carboxamide]",> 25,0.09,0.15,,,,
"Cc1c(S(=O)(=O)NC2(C)COC2)cc(C(=O)Nc2cc(F)c(F)c(Cl)c2)n1C [Compound 136, N-(3-Chloro-4,5-difluorophenyl)-1,5-dimethyl-4-[(3-methyloxetan-3-yl)sulfamoyl]-1H-pyrrole-2-carboxamide]",> 25,0.06,0.06,,,,
"Cc1c(S(=O)(=O)N[C@H](C)C(F)(F)F)cn(C)c1C(=O)Nc1ccc(F)c(C(F)(F)F)c1 [Compound 153, N-[4-Fluoro-3-(trifluoromethyl)phenyl]-1,3-dimethyl-4-{[(1R)-2,2,2-trifluoro-1-methylethyl]sulfamoyl}-1H-pyrrole-2-carboxamide]",> 25,0.15,0.27,,,,
"Cn1cc(S(=O)(=O)NC(C)(C)C)cc1C(=O)Nc1cc(Cl)c(F)c(Cl)c1 [Compound 76, 4-(tert-Butylsulfamoyl)-N-(3,5-dichloro-4-fluorophenyl)-1-methyl-1H-pyrrole-2-carboxamide]",> 25,0.13,0.18,,,,
"Cn1cc(S(=O)(=O)NC(C)(C)C(F)(F)F)cc1C(=O)Nc1cc(F)c(F)c(Cl)c1 [Compound 96, N-(3-Chloro-4,5-difluorophenyl)-1-methyl-4-[(2,2,2-trifluoro-1,1-dimethylethyl)sulfamoyl]-1H-pyrrole-2-carboxamide]",23.7,0.03,0.01,,,,
"CC(CC(F)(F)F)NS(=O)(=O)c1cc(C(=O)Nc2cc(F)c(F)c(Cl)c2)n(C)c1 (single isomer, unassigned) [Compound 169a, N-(3-Chloro-4,5-difluorophenyl)-1-methyl-4-[(3,3,3-trifluoro-1-methylpropyl)sulfamoyl]-1H-pyrrole-2-carboxamide]",16.1,0.05,,0.14,,,
"Cc1cc(NC(=O)c2cc(S(=O)(=O)NCC3(C)COC3)cn2C)ccc1F [Compound 7, N-(4-fluoro-3-methyl-phenyl)-1-methyl-4-[(3-methyloxetan-3-yl)methylsulfamoyl]pyrrole-2-carboxamide]",> 25,0.1,0.12,,,,
"Cn1cc(S(=O)(=O)NC2(C)COC2)cc1C(=O)Nc1ccc(C#N)c(C(F)(F)F)c1 [Compound 51, N-[4-cyano-3-(trifluoromethyl)phenyl]-1-methyl-4-[(3-methyloxetan-3-yl)-sulfamoyl]-1H-pyrrole-2-carboxamide]",,,,,> 25,> 1,> 1
"C[C@H](NS(=O)(=O)c1cc(C(=O)Nc2ccc(F)c(Cl)c2)n(C)c1)C(F)(F)F [Compound 105, N-(3-Chloro-4-fluorophenyl)-1-methyl-4-{[(1S)-2,2,2-trifluoro-1-methylethyl]sulfamoyl}-1H-pyrrole-2-carboxamide]",> 25,0.02,0.03,,,,
"C[C@@H](NS(=O)(=O)c1cc(C(=O)Nc2cccc(Br)c2F)n(C)c1)C(F)(F)F [Compound 206, N-(3-Bromo-2-fluorophenyl)-1-methyl-4-{[(1R)-2,2,2-trifluoro-1-methylethyl]sulfamoyl}-1H-pyrrole-2-carboxamide]",> 25,0.09,0.03,,,,
"Cn1cc(S(=O)(=O)NC2(C(F)(F)F)CCC2)c(Cl)c1C(=O)Nc1ccc(F)c(Cl)c1F [Compound 219, 3-Chloro-N-(3-chloro-2,4-difluorophenyl)-1-methyl-4-{[1-(trifluoro-methyl)cyclobutyl]sulfamoyl}-1H-pyrrole-2-carboxamide]",> 25,0.009,0.01,,,,
"Cc1c(F)ccc(NC(=O)c2c(F)c(S(=O)(=O)NC3(C)COC3)cn2C)c1F [Compound 110, N-(2,4-Difluoro-3-methylphenyl)-3-fluoro-1-methyl-4-[(3-methyloxetan-3-yl)sulfamoyl]-1H-pyrrole-2-carboxamide]",> 25,0.03,0.02,,,,
"Cc1c(S(=O)(=O)N[C@H](C)C(F)(F)F)cc(C(=O)Nc2ccc(F)c(C(F)(F)F)c2)n1C [Compound 142, N-[4-Fluoro-3-(trifluoromethyl)phenyl]-1,5-dimethyl-4-{[(1R)-2,2,2-trifluoro-1-methylethyl]sulfamoyl}-1H-pyrrole-2-carboxamide]",> 25,0.42,0.15,,,,
"Cn1cc(S(=O)(=O)NC2(C(N)=O)CC2)cc1C(=O)Nc1cc(F)c(F)c(Cl)c1 [Compound 114, 4-[(1-Carbamoylcyclopropyl)sulfamoyl]-N-(3-chloro-4,5-difluorophenyl)-1-methyl-1H-pyrrole-2-carboxamide]",> 25,0.05,0.1,,,,
"Cn1cc(S(=O)(=O)NC2(C(F)(F)F)CC2)cc1C(=O)Nc1ccc(F)c(Cl)c1F [Compound 253, N-(3-chloro-2,4-difluoro-phenyl)-1-methyl-4-{[1-(trifluoromethyl)-cyclopropyl]sulfamoyl}-1H-pyrrole-2-carboxamide]",> 25,0.01,0.01,,,,
"Cn1cc(S(=O)(=O)NC(C)(C)C(F)(F)F)cc1C(=O)Nc1ccc(F)c(Cl)c1F [Compound 254, N-(3-chloro-2,4-difluoro-phenyl)-1-methyl-4-[(2,2,2-trifluoro-1,1-dimethyl-ethyl)sulfamoyl]-1H-pyrrole-2-carboxamide]",> 25,0.05,0.05,,,,
"Cn1cc(S(=O)(=O)NC2(C)COC2)cc1C(=O)Nc1ccc(F)c(F)c1 [Compound 20, N-(3,4-difluorophenyl)-1-methyl-4-[(3-methyloxetan-3-yl)sulfamoyl]pyrrole-2-carboxamide]",> 25,0.06,0.07,,,,
"Cn1cc(S(=O)(=O)NC2(C(F)(F)F)CC2)cc1C(=O)Nc1ccc(F)c(C#N)c1 [Compound 227, N-(3-Cyano-4-fluorophenyl)-1-methyl-4-{[1-(trifluoromethyl)cyclopropyl]sulfamoyl}-1H-pyrrole-2-carboxamide]",> 25,0.04,0.02,,,,
"Cn1cc(S(=O)(=O)NC2(C(F)(F)F)CCC2)c(Cl)c1C(=O)Nc1ccc(F)c(Cl)c1 [Compound 268, 3-chloro-N-(3-chloro-4-fluoro-phenyl)-1-methyl-4-{[1-(trifluoro-methyl)cyclobutyl]sulfamoyl}-1H-pyrrole-2-carboxamide]",> 25,0.006,0.005,,,,
"Cn1cc(S(=O)(=O)NC(C)(C)C(F)(F)F)c(Cl)c1C(=O)Nc1ccc(F)c(C#N)c1 [Compound 270, 3-Chloro-N-(3-cyano-4-fluorophenyl)-1-methyl-4-[(2,2,2-trifluoro-1,1-dimethylethyl)sulfamoyl]-1H-pyrrole-2-carboxamide]",> 25,0.11,0.06,,,,
"C[C@H](NS(=O)(=O)c1cc(C(=O)Nc2cccc(C#N)c2F)n(C)c1)C(F)(F)F [Compound 198, N-(3-Cyano-2-fluorophenyl)-1-methyl-4-{[(1S)-2,2,2-trifluoro-1-methylethyl]sulfamoyl}-1H-pyrrole-2-carboxamide]",> 25,0.08,0.15,,,,
"C[C@@H](NS(=O)(=O)c1cn(C)c(C(=O)Nc2ccc(F)c(F)c2)c1F)C(F)(F)F [Compound 229, N-(3,4-Difluorophenyl)-3-fluoro-1-methyl-4-{[(1R)-2,2,2-trifluoro-1-methylethyl]sulfamoyl}-1H-pyrrole-2-carboxamide]",> 25,0.004,0.004,,,,
